Where only a bound is given, the exact number is not on record here.

This experiment concerns the target T1, HMG-CoA reductase (Homo sapiens, UniProt P04035).
T1 construct: endogenous in cells; host or cells: HepG2 (Korea Cell Line Bank)
T1 sequence (P04035 1-888): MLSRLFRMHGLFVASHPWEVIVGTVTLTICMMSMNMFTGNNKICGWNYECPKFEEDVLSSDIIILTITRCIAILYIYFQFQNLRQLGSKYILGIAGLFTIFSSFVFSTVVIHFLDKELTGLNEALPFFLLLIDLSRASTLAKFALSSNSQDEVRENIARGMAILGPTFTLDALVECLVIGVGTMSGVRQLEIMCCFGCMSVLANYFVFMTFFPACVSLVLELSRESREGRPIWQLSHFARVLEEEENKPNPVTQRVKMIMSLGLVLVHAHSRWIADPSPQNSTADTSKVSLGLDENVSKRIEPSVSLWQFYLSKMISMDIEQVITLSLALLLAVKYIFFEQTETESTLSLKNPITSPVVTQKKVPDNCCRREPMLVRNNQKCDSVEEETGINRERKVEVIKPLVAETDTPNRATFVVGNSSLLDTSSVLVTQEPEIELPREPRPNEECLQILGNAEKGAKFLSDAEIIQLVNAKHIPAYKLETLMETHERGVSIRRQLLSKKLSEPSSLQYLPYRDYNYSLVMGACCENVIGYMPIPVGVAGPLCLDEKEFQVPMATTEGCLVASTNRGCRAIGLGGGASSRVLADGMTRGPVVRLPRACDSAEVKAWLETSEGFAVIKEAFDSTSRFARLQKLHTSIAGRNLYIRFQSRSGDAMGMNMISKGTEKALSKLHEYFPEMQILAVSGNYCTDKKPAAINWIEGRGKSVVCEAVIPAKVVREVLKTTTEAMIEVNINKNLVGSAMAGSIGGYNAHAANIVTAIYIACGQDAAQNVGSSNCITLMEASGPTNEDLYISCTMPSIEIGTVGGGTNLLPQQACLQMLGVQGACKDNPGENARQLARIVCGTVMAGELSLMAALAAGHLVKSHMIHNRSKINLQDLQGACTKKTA
As to the kind of experiment: HMG-CoA reductase (HMGCR) degradation in HepG2 cells by western blotting. Conditions: treated for 18 hours, ratio of HMG-CoA reductase to GAPDH, read-out: DC50. Format: cell-based. An outline of the steps:
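Western blot read-out: HMGCR protein probed (1:500, 16 hours at 4° C) alongside GAPDH loading control on 15 μg BCA-normalised RIPA lysates. Lysates came from HepG2 cells (P105–P110) exposed for 18 hours to a 10-point, three-fold series starting at 3 μM.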
With `C[C@H]1C=C2C=C[C@H](C)[C@H](CC[C@@H]3C[C@@H](O)CC(=O)O3)[C@H]2[C@@H](OC(=O)NCCCCCN2CCC(Nc3cccc4c3C(=O)N(C3CCC(=O)NC3=O)C4=O)CC2)C1` (stereo partly drawn) [Compound 126, (1S,3R,7S,8S,8aR)-8-(2-((2R,4R)-4-hydroxy-6-oxotetrahydro-2H-pyran-2-yl)ethyl)-3,7-dimethyl-1,2,3,7,8,8a-hexahydronaphthalen-1-yl (5-(4-((2-(2,6-dioxopiperidin-3-yl)-1,3-dioxoisoindolin-4-yl)amino)piperidin-1-yl)pentyl)carbamate], the DC50 – broadly, the concentration giving 50% degradation – is below 50 nM. The figure for `C[C@H]1C=C2C=C[C@H](C)[C@H](CC[C@@H]3C[C@@H](O)CC(=O)O3)[C@H]2[C@@H](OC(=O)NCCCCCCN2CCC(Nc3cccc4c3C(=O)N(C3CCC(=O)NC3=O)C4=O)CC2)C1` (stereo partly drawn) [Compound 127, (1S,3R,7S,8S,8aR)-8-(2-((2R,4R)-4-hydroxy-6-oxotetrahydro-2H-pyran-2-yl)ethyl)-3,7-dimethyl-1,2,3,7,8,8a-hexahydronaphthalen-1-yl (6-(4-((2-(2,6-dioxo piperidin-3-yl)-1,3-dioxoisoindolin-4-yl)amino)piperidin-1-yl)hexyl)carbamate] is 50 to 500 nM. The figure for `C[C@H]1C=C2C=C[C@H](C)[C@H](CC[C@@H]3C[C@@H](O[Si](C)(C)C(C)(C)C)CC(=O)O3)[C@H]2[C@@H](OC(=O)NCCOCCNC(=O)COc2cccc3c2C(=O)N(C2CCC(=O)NC2=O)C3=O)C1` (stereo partly drawn) [Compound 128, (1S,3R,7S,8S,8aR)-8-(2-((2R,4R)-4-((tert-butyldimethylsilyl)oxy)-6-oxotetrahydro-2H-pyran-2-yl)ethyl)-3,7-dimethyl-1,2,3,7,8,8a-hexahydronaphthalen-1-yl (2-(2-(2-((2-(2,6-dioxopiperidin-3-yl)-1,3-dioxoisoindolin-4-yl)oxy)acetamido)ethoxy)ethyl)carbamate] is below 50 nM; for `C[C@H]1C=C2C=C[C@H](C)[C@H](CC[C@@H]3C[C@@H](O)CC(=O)O3)[C@H]2[C@@H](OC(=O)NCCOCCNC(=O)COc2cccc3c2C(=O)N(C2CCC(=O)NC2=O)C3=O)C1` (stereo partly drawn) [Compound 129, (1S,3R,7S,8S,8aR)-8-(2-((2R,4R)-4-hydroxy-6-oxotetrahydro-2H-pyran-2-yl)ethyl)-3,7-dimethyl-1,2,3,7,8,8a-hexahydronaphthalen-1-yl (2-(2-(2-((2-(2,6-dioxopiperidin-3-yl)-1,3-dioxoisoindolin-4-yl)oxy)acetamido)ethoxy)ethyl)carbamate] it is below 50 nM; for `C[C@H]1C=C2C=C[C@H](C)[C@H](CC[C@@H]3C[C@@H](O[Si](C)(C)C(C)(C)C)CC(=O)O3)[C@H]2[C@@H](OC(=O)NCCCOC2CCN(C(=O)COc3cccc4c3C(=O)N(C3CCC(=O)NC3=O)C4=O)CC2)C1` (stereo partly drawn) [Compound 134, (1S,3R,7S,8S,8aR)-8-(2-((2R,4R)-4-((tert-butyldimethylsilyl)oxy)-6-oxotetrahydro-2H-pyran-2-yl)ethyl)-3,7-dimethyl-1,2,3,7,8,8a-hexahydronaphthalen-1-yl (3-((1-(2-((2-(2,6-dioxopiperidin-3-yl)-1,3-dioxoisoindolin-4-yl)oxy)acetyl)piperidin-4-yl)oxy)propyl)carbamate] it is 50 to 500 nM. For `C[C@H]1C=C2C=C[C@H](C)[C@H](CC[C@@H]3C[C@@H](O)CC(=O)O3)[C@H]2[C@@H](OC(=O)NCCCOC2CCN(C(=O)COc3cccc4c3C(=O)N(C3CCC(=O)NC3=O)C4=O)CC2)C1` (stereo partly drawn) [Compound 135, (1S,3R,7S,8S,8aR)-8-(2-((2R,4R)-4-hydroxy-6-oxotetrahydro-2H-pyran-2-yl)ethyl)-3,7-dimethyl-1,2,3,7,8,8a-hexahydronaphthalen-1-yl (3-((1-(2-((2-(2,6-dioxopiperidin-3-yl)-1,3-dioxoisoindolin-4-yl)oxy)acetyl)piperidin-4-yl)oxy)propyl)carbamate] the value was below 50 nM; for `C[C@H]1C=C2C=C[C@H](C)[C@H](CC[C@@H]3C[C@@H](O[Si](C)(C)C(C)(C)C)CC(=O)O3)[C@H]2[C@@H](OC(=O)NCCOCCOCCNC(=O)COc2cccc3c2C(=O)N(C2CCC(=O)NC2=O)C3=O)C1` (stereo partly drawn) [Compound 138, (1S,3R,7S,8S,8aR)-8-(2-((2R,4R)-4-((tert-butyldimethylsilyl)oxy)-6-oxotetrahydro-2H-pyran-2-yl)ethyl)-3,7-dimethyl-1,2,3,7,8,8a-hexahydronaphthalen-1-yl (2-(2-(2-(2-((2-(2,6-dioxopiperidin-3-yl)-1,3-dioxoisoindolin-4-yl)oxy)acetamido)ethoxy)ethoxy)ethyl)carbamate], below 50 nM. Take `C[C@H]1C=C2C=C[C@H](C)[C@H](CC[C@@H]3C[C@@H](O)CC(=O)O3)[C@H]2[C@@H](OC(=O)NCCOCCOCCNC(=O)COc2cccc3c2C(=O)N(C2CCC(=O)NC2=O)C3=O)C1` (stereo partly drawn) [Compound 139, (1S,3R,7S,8S,8aR)-8-(2-((2R,4R)-4-hydroxy-6-oxotetrahydro-2H-pyran-2-yl)ethyl)-3,7-dimethyl-1,2,3,7,8,8a-hexahydronaphthalen-1-yl (2-(2-(2-(2-((2-(2,6-dioxopiperidin-3-yl)-1,3-dioxoisoindolin-4-yl)oxy)acetamido)ethoxy)ethoxy)ethyl)carbamate]: the DC50 lay in the range of 50 to 500 nM.

For `C[C@H]1C=C2C=C[C@H](C)[C@H](CC[C@@H]3C[C@@H](O[Si](C)(C)C(C)(C)C)CC(=O)O3)[C@H]2[C@@H](OC(=O)NCCOCCOCC(=O)Nc2cccc3c2C(=O)N(C2CCC(=O)NC2=O)C3=O)C1` (stereo partly drawn) [Compound 142, (1S,3R,7S,8S,8aR)-8-(2-((2R,4R)-4-((tert-butyldimethylsilyl)oxy)-6-oxotetrahydro-2H-pyran-2-yl)ethyl)-3,7-dimethyl-1,2,3,7,8,8a-hexahydronaphthalen-1-yl (2-(2-(2-((2-(2,6-dioxopiperidin-3-yl)-1,3-dioxoisoindolin-4-yl)amino)-2-oxoethoxy)ethoxy)ethyl)carbamate], the DC50 is 50 to 500 nM. For `C[C@H]1C=C2C=C[C@H](C)[C@H](CC[C@@H]3C[C@@H](O)CC(=O)O3)[C@H]2[C@@H](OC(=O)NCCOCCOCC(=O)Nc2cccc3c2C(=O)N(C2CCC(=O)NC2=O)C3=O)C1` (stereo partly drawn) [Compound 143, (1S,3R,7S,8S,8aR)-8-(2-((2R,4R)-4-hydroxy-6-oxotetrahydro-2H-pyran-2-yl)ethyl)-3,7-dimethyl-1,2,3,7,8,8a-hexahydronaphthalen-1-yl (2-(2-(2-((2-(2,6-dioxopiperidin-3-yl)-1,3-dioxoisoindolin-4-yl)amino)-2-oxoethoxy)ethoxy)ethyl)carbamate] the value was below 50 nM.
